Patent publication US9944602B2, “Piperidinone herbicides” (E. I. DU PONT DE NEMOURS AND COMPANY, priority 2014, dated 2018)

Key:
Type in all cases: in vivo
[1] = system: barnyardgrass (Echinochloa crus-galli); assay: Test A preemergence barnyardgrass; details: 0 to 100 scale; for pest or weed control at 125 g/ha: 125 g ai/ha
Outline: (§1)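 Compounds in non-phytotoxic solvent with surfactant, applied preemergence as directed soil spray on seeds in loam–sand blend, or postemergence to plants 2–10 cm tall at one- to two-leaf stage. Greenhouse ~10 d, then visual injury versus untreated controls, 0 (no effect) to 100 (complete control).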

[2] = system: ducksalad (Heteranthera limosa); assay: Test B flooded paddy test ducksalad; details: Heteranthera limosa, Table B, Flood, scale 0 to 100, read-out: Plant response rating; for pest or weed control at 250 g/ha: 250 g ai/ha
Outline: (§2)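 Visual injury relative to controls was scored after 13 to 15 d in the greenhouse. Treatment was by adding compound straight to flood water 3 cm deep, maintained for the whole test, on plants at the 2-leaf stage.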

[3] = system: sedge, umbrella (small-flower umbrella sedge, Cyperus difformis); assay: Test B flooded paddy test sedge, umbrella; details: Cyperus difformis, Table B, Flood, scale 0 to 100, read-out: Plant response rating; for pest or weed control at 250 g/ha: 250 g ai/ha
Outline: as §2

[4] = system: barnyardgrass (Echinochloa crus-galli); assay: Test B flooded paddy test barnyardgrass; details: Echinochloa crus-galli, Table B, Flood, scale 0 to 100, read-out: Plant response rating; for pest or weed control at 250 g/ha: 250 g ai/ha
Outline: as §2

[5] = system: ryegrass, Italian (Italian ryegrass, Lolium multiflorum); assay: Test A postemergence ryegrass, Italian; details: Lolium multiflorum, post-emergence, 240 h, 0 to 100 scale, 0 is no effect, 100 is complete control, read-out: Plant response rating, Ryegrass, Italian; for pest or weed control at 125 g/ha: 125 g ai/ha; for pest or weed control at 500 g/ha: 500 g ai/ha
Outline: as §1

[6] = system: barnyardgrass (Echinochloa crus-galli); assay: Test A postemergence barnyardgrass; details: Echinochloa crus-galli, post-emergence, 240 h, 0 to 100 scale, 0 is no effect, 100 is complete control, read-out: Plant response rating, Barnyardgrass; for pest or weed control at 125 g/ha: 125 g ai/ha; for pest or weed control at 500 g/ha: 500 g ai/ha
Outline: as §1

[7] = system: wheat (Triticum aestivum); assay: Test A postemergence wheat; details: Triticum aestivum, post-emergence, 240 h, 0 to 100 scale, 0 is no effect, 100 is complete control, read-out: Plant response rating, Wheat; for plant injury at 125 g/ha: 125 g ai/ha; for plant injury at 500 g/ha: 500 g ai/ha
Outline: as §1

[8] = system: ragweed (common ragweed, Ambrosia elatior); assay: Test A postemergence ragweed; details: Ambrosia artemisiifolia, post-emergence, 240 h, 0 to 100 scale, 0 is no effect, 100 is complete control, read-out: Plant response rating, Ragweed; for pest or weed control at 125 g/ha: 125 g ai/ha; for pest or weed control at 500 g/ha: 500 g ai/ha
Outline: as §1

rice (Oryza sativa) = assay: Test B flooded paddy test rice; details: Oryza sativa, Table B, Flood, scale 0 to 100, read-out: Plant response rating; for plant injury at 250 g/ha: 250 g ai/ha
Outline: as §2

[9] = system: blackgrass (Alopecurus myosuroides); assay: Test A postemergence blackgrass; details: Alopecurus myosuroides, post-emergence, 240 h, 0 to 100 scale, 0 is no effect, 100 is complete control, read-out: Plant response rating, Blackgrass; for pest or weed control at 125 g/ha: 125 g ai/ha; for pest or weed control at 500 g/ha: 500 g ai/ha
Outline: as §1

[10] = system: pigweed (Amaranthus retroflexus); assay: Test A preemergence pigweed; details: Amaranthus retroflexus, pre-emergence, 240 h, 0 to 100 scale, 0 no effect, 100 complete control, read-out: Pigweed plant response rating; for pest or weed control at 125 g/ha: 125 g ai/ha; for pest or weed control at 500 g/ha: 500 g ai/ha
Outline: as §1

[11] = system: ryegrass, Italian (Italian ryegrass, Lolium multiflorum); assay: Test A preemergence ryegrass, Italian; details: Lolium multiflorum, pre-emergence, 240 h, 0 to 100 scale, 0 no effect, 100 complete control, read-out: Ryegrass, Italian plant response rating; for pest or weed control at 125 g/ha: 125 g ai/ha; for pest or weed control at 500 g/ha: 500 g ai/ha
Outline: as §1

[12] = system: galium (catchweed bedstraw, Galium aparine); assay: Test A postemergence galium; details: Galium, post-emergence, 240 h, 0 to 100 scale, 0 is no effect, 100 is complete control, read-out: Plant response rating, Galium; for pest or weed control at 125 g/ha: 125 g ai/ha; for pest or weed control at 500 g/ha: 500 g ai/ha
Outline: as §1

[13] = system: foxtail, giant (giant foxtail, Setaria faberii); assay: Test A preemergence foxtail, giant; details: Setaria faberi, pre-emergence, 240 h, 0 to 100 scale, 0 no effect, 100 complete control, read-out: Foxtail, Giant plant response rating; for pest or weed control at 125 g/ha: 125 g ai/ha; for pest or weed control at 500 g/ha: 500 g ai/ha
Outline: as §1

[14] = system: foxtail, giant (giant foxtail, Setaria faberii); assay: Test A postemergence foxtail, giant; details: Setaria faberi, post-emergence, 240 h, 0 to 100 scale, 0 is no effect, 100 is complete control, read-out: Plant response rating, Foxtail, Giant; for pest or weed control at 125 g/ha: 125 g ai/ha; for pest or weed control at 500 g/ha: 500 g ai/ha
Outline: as §1

corn (Zea mays) = assay: Test A postemergence corn; details: Zea mays, post-emergence, 240 h, 0 to 100 scale, 0 is no effect, 100 is complete control; for Corn plant response rating (crop injury, 0 = no effect, 100 = complete kill) at 125 g/ha: 125 g ai/ha; for Corn plant response rating (crop injury, 0 = no effect, 100 = complete kill) at 500 g/ha: 500 g ai/ha
Outline: as §1

kochia (Kochia scoparia) [15] = assay: Test A postemergence kochia; details: Bassia scoparia, post-emergence, 240 h, 0 to 100 scale, 0 is no effect, 100 is complete control, read-out: Plant response rating, Kochia; for pest or weed control at 125 g/ha: 125 g ai/ha; for pest or weed control at 500 g/ha: 500 g ai/ha
Outline: as §1

[16] = system: pigweed (Amaranthus retroflexus); assay: Test A postemergence pigweed; details: Amaranthus retroflexus, post-emergence, 240 h, 0 to 100 scale, 0 is no effect, 100 is complete control, read-out: Plant response rating, Pigweed; for pest or weed control at 125 g/ha: 125 g ai/ha; for pest or weed control at 500 g/ha: 500 g ai/ha
Outline: as §1

kochia (Kochia scoparia) [17] = assay: Test A preemergence kochia; details: Bassia scoparia, pre-emergence, 240 h, 0 to 100 scale, 0 no effect, 100 complete control, read-out: Kochia plant response rating; for pest or weed control at 125 g/ha: 125 g ai/ha; for pest or weed control at 500 g/ha: 500 g ai/ha
Outline: as §1

[18] = system: ragweed (common ragweed, Ambrosia elatior); assay: Test A preemergence ragweed; details: Ambrosia artemisiifolia, pre-emergence, 240 h, 0 to 100 scale, 0 no effect, 100 complete control, read-out: Ragweed plant response rating; for pest or weed control at 125 g/ha: 125 g ai/ha; for pest or weed control at 500 g/ha: 500 g ai/ha
Outline: as §1

[19] = Echinochloa crus-galli, pre-emergence, 240 h, 0 no effect, 100 complete control, read-out: Barnyardgrass plant response rating

SMILES | pest or weed control at 125 g/ha [1, 19] | pest or weed control at 250 g/ha [2] | pest or weed control at 250 g/ha [3] | pest or weed control at 250 g/ha [4] | pest or weed control at 125 g/ha [5] | pest or weed control at 500 g/ha [5] | pest or weed control at 125 g/ha [6] | pest or weed control at 500 g/ha [6] | plant injury at 125 g/ha [7] | plant injury at 500 g/ha [7] | pest or weed control at 125 g/ha [8] | pest or weed control at 500 g/ha [8] | plant injury at 250 g/ha (rice (Oryza sativa)) | pest or weed control at 125 g/ha [9] | pest or weed control at 500 g/ha [9] | pest or weed control at 125 g/ha [10] | pest or weed control at 500 g/ha [10] | pest or weed control at 125 g/ha [11] | pest or weed control at 500 g/ha [11] | pest or weed control at 125 g/ha [12] | other results
O=C1NCCC(c2ccc(C(F)(F)F)cc2)C1C(=O)Nc1ccccc1F (stereo not shown) [Compound 14, N-(2-fluorophenyl)-2-oxo-4-[4-(trifluoromethyl)phenyl]-3-piperidinecarboxamide] | 50% | 80% | 0% | 30% | 0% | 0% | 20% | 90% | 0% | 0% | 0% | 0% | 0% | 0% | 0% | 0% | 0% | 0% | 0% | 0% | Plant response rating, Barnyardgrass ([1]; 500 g ai/ha, 0 is no effect, 100 is complete control): 90; pest or weed control at 1000 g/ha ([2]; 1000 g ai/ha): 100%; pest or weed control at 1000 g/ha ([3]; 1000 g ai/ha): 0%; pest or weed control at 1000 g/ha ([4]; 1000 g ai/ha): 30%; plant injury at 1000 g/ha (rice (Oryza sativa); 1000 g ai/ha): 0%; pest or weed control at 500 g/ha [12]: 0%; pest or weed control at 125 g/ha [13]: 30%; pest or weed control at 500 g/ha [13]: 90%; pest or weed control at 125 g/ha [14]: 30%; pest or weed control at 500 g/ha [14]: 90%; Corn plant response rating (crop injury, 0 = no effect, 100 = complete kill) at 125 g/ha (corn (Zea mays)): 0%; Corn plant response rating (crop injury, 0 = no effect, 100 = complete kill) at 500 g/ha (corn (Zea mays)): 0%; pest or weed control at 125 g/ha (kochia (Kochia scoparia) [15]): 0%; pest or weed control at 500 g/ha (kochia (Kochia scoparia) [15]): 0%; pest or weed control at 125 g/ha [16]: 0%; pest or weed control at 500 g/ha [16]: 0%; pest or weed control at 125 g/ha (kochia (Kochia scoparia) [17]): 0%; pest or weed control at 500 g/ha (kochia (Kochia scoparia) [17]): 20%; pest or weed control at 125 g/ha [18]: 0%; pest or weed control at 500 g/ha [18]: 0%
CN1CC[C@H](c2ccc(F)cc2)[C@@H](C(=O)Nc2cccc(F)c2F)C1=O [Compound 52, (3S,4S)—N-(2,3-difluorophenyl)-4-(4-fluorophenyl)-1-methyl-2-oxo-3-piperidinecarboxamide] | 90% | 100% | 0% | 30% | 0% | 20% | 70% | 90% | 0% | 20% | 0% | 0% | 0% | 0% | 0% | 30% | 80% | 20% | 30% | 0% | pest or weed control at 500 g/ha ([1]; Echinochloa crus-galli, pre-emergence, 240 h, 500 g ai/ha, 0 no effect, 100 complete control, read-out: Barnyardgrass plant response rating): 90%; pest or weed control at 500 g/ha [12]: 50%; pest or weed control at 125 g/ha [13]: 90%; pest or weed control at 500 g/ha [13]: 90%; pest or weed control at 125 g/ha [14]: 80%; pest or weed control at 500 g/ha [14]: 80%; Corn plant response rating (crop injury, 0 = no effect, 100 = complete kill) at 125 g/ha (corn (Zea mays)): 0%; Corn plant response rating (crop injury, 0 = no effect, 100 = complete kill) at 500 g/ha (corn (Zea mays)): 10%; pest or weed control at 125 g/ha (kochia (Kochia scoparia) [15]): 0%; pest or weed control at 500 g/ha (kochia (Kochia scoparia) [15]): 20%; pest or weed control at 125 g/ha [16]: 0%; pest or weed control at 500 g/ha [16]: 0%; pest or weed control at 125 g/ha (kochia (Kochia scoparia) [17]): 0%; pest or weed control at 500 g/ha (kochia (Kochia scoparia) [17]): 20%; pest or weed control at 125 g/ha [18]: 20%; pest or weed control at 500 g/ha [18]: 30%
